Assay results: article PMC9995496, “A screen for MeCP2-TBL1 interaction inhibitors using a luminescence-based assay” (Scientific Reports, 2023)
Counter-ions that a name gives are not always drawn. Like-named read-outs stand apart in the source and are kept apart here. Square brackets hold non-standard residues; d marks the D form. Peptide text beside a SMILES is read from it. ξ: configuration not given here. ξL = CC(C)CC(N)C(=O)O; ξM = CSCCC(N)C(=O)O

System: PRKACA-PRKAR2A interaction (SmBiT-PRKACA / LgBiT-PRKAR2A), protein kinase A
Parameters: NanoLuc complementation counter-screen in cell extract, PRKACA with PRKAR2A, loss of luminescence, detects NanoLuc interference
Conditions: 0.5 h, 20 µM, inhibitor
[1] = counter-screen for NanoLuc interference

SMILES | Inh (PKA) [1] [%] | also measured
CSCCC(C=O)NC(=O)C(CC(C)C)NC(=O)[C@H](CC(C)C)NC(C)=O (stereo partly drawn) [UM0141476:01, Calpain Inhibitor II, ALLM] (Ac-Leu-[ξL]-[ξM]-aldehyde) | 1.385 | 
c1ccc(CN(CC2=NCCN2)c2ccccc2)cc1 [UM0134174:02, Antazoline HCl] | 0.9494 | 
C/C=C1\NC(=O)[C@H]2CSSCC/C=C/[C@H](CC(=O)N[C@H](C(C)C)C(=O)N2)OC(=O)[C@H](C(C)C)NC1=O [UM0141931:01, Romidepsin (FK228, depsipeptide)] | 2.202 | 
CN(C[C@@H]1COCCO1)S(=O)(=O)Nc1ccc2ccc3ncc(-c4cnn(C)c4)cc3c(=O)c2c1 [UM0142058:01, MK-2461] | 13.67 | 
CNc1cc(-c2cccc(Cl)c2Cl)nc(N)n1 [UM0142665:01, TH287] | 9.555 | 
NC(=O)c1cccc2[nH]c(-c3ccc([C@@H]4CCCN4)cc3F)nc12 [UM0141739:01, A-966492] | 5.639 | 
CC(C)c1noc(N2CCC(COc3ccc(-c4ccc(S(C)(=O)=O)cc4)nc3)CC2)n1 [UM0142042:01, GSK1292263] | 2.417 | 
O=C(O)C(=O)c1cn(Cc2ccccc2)c2ccc(-c3ccc(OC(F)(F)F)cc3)cc12 [UM0142688:01, Tiplaxtinin(PAI-039)] | 36.69 | 
Cc1cccc(-c2[nH]c(C(C)(C)C)nc2-c2ccc3nccnc3c2)n1 [UM0141897:01, SB525334] | 4.915 | 
CC(C)(C)C(O)/C=C/c1ccc2c(c1)OCO2 (stereo not drawn) [UM0142121:01, Stiripentol] | 12.44 | 
CN1CCN(c2ccc(Nc3cc(-c4cccc(-n5ccc6cc(C7CC7)cc(F)c6c5=O)c4CO)cn(C)c3=O)nc2)CC1 [UM0142104:01, RN486] | 0.8611 | 
Cc1ccccc1CN1C(=O)C2=C(CCN(Cc3ccccc3)C2)N2CCN=C12 [UM0142096:01, TIC10] |  | Inh (PKA): 4.346
CNC(=O)c1cc(COc2nnc(Nc3ccc(Cl)cc3)c3ccoc23)ccn1 [UM0142083:01, Telatinib (BAY 57-9352)] | 10.72 | 
N#Cc1ccc(COC[C@H]2O[C@@H](n3c(NCc4ccc(Cl)c(Cl)c4)nc4c(N)ncnc43)[C@H](O)[C@@H]2O)cc1 [UM0141827:01, VER 155008] | 36.57 | 
CC(C)[C@H](CO)Nc1nc(Nc2ccc(C(=O)O)c(Cl)c2)c2ncn(C(C)C)c2n1 [UM0142090:01, Purvalanol B] | 25.51 | 
Cc1cc([N+](=O)[O-])ccc1NS(=O)(=O)c1cc(Cl)ccc1Cl [UM0141551:01, FH535] | 77.24 | 
C[C@H]1CCC/C=C/[C@@H]2C[C@H](O)C[C@H]2[C@H](O)/C=C/C(=O)O1 [UM0133745:02, Brefeldin A] | 1.414 | 
CC1(C)CC(=O)c2c(C(F)(F)F)nn(-c3ccc(C(N)=O)c(N[C@H]4CC[C@H](O)CC4)c3)c2C1 [UM0141689:01, SNX-2112] | 12.62 | 
O=S(=O)(c1cccc2c(O)nccc12)N1CCCNCC1 [UM0141561:01, Hydroxyfasudil hydrochloride] | 27.19 | 
O=CC[C@@H](O)[C@H](O)[C@H](O)CO [UM0142158:01, 2-Deoxy-D-glucose] | 1.529 | 
O=C(c1ccccc1)c1ccc2n1CCC2C(=O)O (stereo not drawn) [UM0142262:01, Ketorolac tromethamine salt] |  | Inh (PKA) (counter-screen for NanoLuc interference, Inh (PKA)): -1.185%
O=c1[nH]c2ccccc2n1C1CCN(CCCC(c2ccc(F)cc2)c2ccc(F)cc2)CC1 [UM0118378:03, Pimozide] | 11.2 | 
COc1cccc(OCCCN)c1-c1cc(Nc2cnc(C#N)cn2)n[nH]1 [UM0142169:01, LY2606368] | 14.04 | 
Cc1cn(-c2cc(NC(=O)c3ccc(C)c(Nc4nccc(-c5cccnc5)n4)c3)cc(C(F)(F)F)c2)cn1 [UM0127956:03, Nilotinib(AMN-107)] | 17.26 | 
